Numbers after ± are expanded uncertainties.
Assay: refractive index (other wavelength) (dimensionless); xn = mol fraction of the nth substance listed
Details: 85 kPa, Liquid, Wavelength=632.8 nm, minimum deviation angle technique

CCCCCCCC[n+]1ccn(C)c1.F[P-](F)(F)(F)(F)F [1-octyl-3-methylimidazolium hexafluorophosphate] + CCCO
Details	refractive index
298.19 K, x1 = 1	1.4215 ± 0.0003
300.2 K, x1 = 1	1.421 ± 0.0003
302.19 K, x1 = 1	1.4204 ± 0.0003
304.2 K, x1 = 1	1.4199 ± 0.0003
305.17 K, x1 = 0.3	1.4047 ± 0.0002
305.17 K, x1 = 0.5	1.4114 ± 0.0002
305.21 K, x1 = 0.6	1.4137 ± 0.0002
305.22 K, x1 = 0.801	1.4171 ± 0.0003
305.23 K, x1 = 0.698	1.4154 ± 0.0003
305.26 K, x1 = 0.899	1.4184 ± 0.0003
305.27 K, x1 = 0.399	1.4084 ± 0.0002
306.18 K, x1 = 0.6	1.4134 ± 0.0002
306.19 K, x1 = 0.5	1.4111 ± 0.0002
306.2 K, x1 = 0.3	1.4044 ± 0.0002
306.2 K, x1 = 0.399	1.4081 ± 0.0002
306.2 K, x1 = 0.801	1.4168 ± 0.0003
306.22 K, x1 = 1	1.4193 ± 0.0003
306.23 K, x1 = 0.698	1.4151 ± 0.0003
306.25 K, x1 = 0.899	1.4181 ± 0.0003
307.19 K, x1 = 0.3	1.404 ± 0.0002
307.19 K, x1 = 0.801	1.4165 ± 0.0003
307.21 K, x1 = 0.399	1.4078 ± 0.0002
307.21 K, x1 = 0.6	1.4131 ± 0.0002
307.24 K, x1 = 0.698	1.4148 ± 0.0003
307.24 K, x1 = 0.899	1.4178 ± 0.0003
307.29 K, x1 = 0.2	1.3986 ± 0.0002
307.35 K, x1 = 0.5	1.4108 ± 0.0002
308.19 K, x1 = 0.5	1.4105 ± 0.0002
308.2 K, x1 = 0.3	1.4037 ± 0.0002
308.21 K, x1 = 0.801	1.4162 ± 0.0003
308.23 K, x1 = 0.899	1.4175 ± 0.0003
308.24 K, x1 = 0.698	1.4146 ± 0.0003
308.24 K, x1 = 1	1.4188 ± 0.0003
308.25 K, x1 = 0.399	1.4075 ± 0.0002
308.26 K, x1 = 0.2	1.3983 ± 0.0002
308.27 K, x1 = 0.6	1.4128 ± 0.0002
308.32 K, x1 = 0.1	1.3904 ± 0.0002
309.18 K, x1 = 0.399	1.4072 ± 0.0002
309.19 K, x1 = 0.3	1.4034 ± 0.0002
309.19 K, x1 = 0.5	1.4102 ± 0.0002
309.21 K, x1 = 0.6	1.4125 ± 0.0002
309.21 K, x1 = 0.899	1.4173 ± 0.0003
309.22 K, x1 = 0.698	1.4143 ± 0.0003
309.23 K, x1 = 0.1	1.3901 ± 0.0002
309.23 K, x1 = 0.801	1.416 ± 0.0003
309.28 K, x1 = 0.2	1.3979 ± 0.0002
310.11 K, x1 = 0.3	1.4031 ± 0.0002
310.19 K, x1 = 0.6	1.4122 ± 0.0002
310.2 K, x1 = 0.5	1.4099 ± 0.0002
310.21 K, x1 = 0.899	1.417 ± 0.0003
310.23 K, x1 = 0.1	1.3897 ± 0.0002
310.23 K, x1 = 0.698	1.414 ± 0.0003
310.25 K, x1 = 0.801	1.4157 ± 0.0003
310.25 K, x1 = 1	1.4183 ± 0.0003
310.26 K, x1 = 0.2	1.3976 ± 0.0002
310.29 K, x1 = 0.399	1.4069 ± 0.0002
311.2 K, x1 = 0.6	1.4119 ± 0.0002
311.2 K, x1 = 0.801	1.4154 ± 0.0003
311.2 K, x1 = 0.899	1.4167 ± 0.0003
311.21 K, x1 = 0.3	1.4027 ± 0.0002
311.21 K, x1 = 0.399	1.4066 ± 0.0002
311.22 K, x1 = 0.5	1.4096 ± 0.0002
311.24 K, x1 = 0.1	1.3893 ± 0.0002
311.25 K, x1 = 0.2	1.3973 ± 0.0002
311.25 K, x1 = 0.698	1.4138 ± 0.0003
312.17 K, x1 = 0.3	1.4024 ± 0.0002
312.17 K, x1 = 0.399	1.4063 ± 0.0002
312.19 K, x1 = 0.6	1.4116 ± 0.0002
312.19 K, x1 = 0.698	1.4135 ± 0.0003
312.2 K, x1 = 0.2	1.397 ± 0.0002
312.2 K, x1 = 0.5	1.4093 ± 0.0002
312.2 K, x1 = 0.801	1.4151 ± 0.0003
312.2 K, x1 = 0.899	1.4164 ± 0.0003
312.24 K, x1 = 1	1.4178 ± 0.0003
312.26 K, x1 = 0.1	1.3889 ± 0.0002
313.24 K, x1 = 0.1	1.3886 ± 0.0002
313.24 K, x1 = 0.2	1.3966 ± 0.0002

CC(C)(C)O [2-methylpropan-2-ol] + CCCCCCCC[n+]1ccn(C)c1.F[P-](F)(F)(F)(F)F
x2 = 0
Details	refractive index
309.16 K	1.3775 ± 0.0002
312.05 K	1.3759 ± 0.0002
315.18 K	1.3742 ± 0.0002
318.15 K	1.3725 ± 0.0002
321.11 K	1.3708 ± 0.0002
324.42 K	1.3689 ± 0.0002

CCCO [propan-1-ol] + CCCCCCCC[n+]1ccn(C)c1.F[P-](F)(F)(F)(F)F
x2 = 0
Details	refractive index
298.19 K	1.3818 ± 0.0002
300.2 K	1.381 ± 0.0002
302.19 K	1.3802 ± 0.0002
304.2 K	1.3793 ± 0.0002
306.22 K	1.3785 ± 0.0002
308.24 K	1.3777 ± 0.0002
310.25 K	1.3769 ± 0.0002
312.24 K	1.376 ± 0.0002

Source: the NIST ThermoML archive (doi:10.1016/j.fluid.2013.12.022)
